Like-named read-outs stand apart in the source and are kept apart here.
Columns and labels:
EGFR (T790M) = EGFR (T790M) (Homo sapiens (Human), UniProt P00533, T790M); test: KinomeScan; type: binding; conditions: 1 uM
PIM1 = PIM1 (Homo sapiens (Human), UniProt P11309); test: Dundee profiling
PKCγ = PKCγ (Homo sapiens (Human), UniProt P05129); test: Dundee profiling
EPHB2 = EPHB2 (Homo sapiens (Human), UniProt P29323); test: Dundee profiling
MLK3 = MLK3 (Homo sapiens (Human), UniProt Q16584); test: KinomeScan; type: binding; conditions: 1 uM
MST3 = MST3 (Homo sapiens (Human), UniProt Q9Y6E0); test: KinomeScan; type: binding; conditions: 1 uM
WNK1 = WNK1 (Homo sapiens (Human), UniProt Q9H4A3); test: Dundee profiling
HER4 = HER4 (Homo sapiens (Human), UniProt Q15303); test: Dundee profiling
Sequence of HER4 (Q15303 26-1308, species assumed): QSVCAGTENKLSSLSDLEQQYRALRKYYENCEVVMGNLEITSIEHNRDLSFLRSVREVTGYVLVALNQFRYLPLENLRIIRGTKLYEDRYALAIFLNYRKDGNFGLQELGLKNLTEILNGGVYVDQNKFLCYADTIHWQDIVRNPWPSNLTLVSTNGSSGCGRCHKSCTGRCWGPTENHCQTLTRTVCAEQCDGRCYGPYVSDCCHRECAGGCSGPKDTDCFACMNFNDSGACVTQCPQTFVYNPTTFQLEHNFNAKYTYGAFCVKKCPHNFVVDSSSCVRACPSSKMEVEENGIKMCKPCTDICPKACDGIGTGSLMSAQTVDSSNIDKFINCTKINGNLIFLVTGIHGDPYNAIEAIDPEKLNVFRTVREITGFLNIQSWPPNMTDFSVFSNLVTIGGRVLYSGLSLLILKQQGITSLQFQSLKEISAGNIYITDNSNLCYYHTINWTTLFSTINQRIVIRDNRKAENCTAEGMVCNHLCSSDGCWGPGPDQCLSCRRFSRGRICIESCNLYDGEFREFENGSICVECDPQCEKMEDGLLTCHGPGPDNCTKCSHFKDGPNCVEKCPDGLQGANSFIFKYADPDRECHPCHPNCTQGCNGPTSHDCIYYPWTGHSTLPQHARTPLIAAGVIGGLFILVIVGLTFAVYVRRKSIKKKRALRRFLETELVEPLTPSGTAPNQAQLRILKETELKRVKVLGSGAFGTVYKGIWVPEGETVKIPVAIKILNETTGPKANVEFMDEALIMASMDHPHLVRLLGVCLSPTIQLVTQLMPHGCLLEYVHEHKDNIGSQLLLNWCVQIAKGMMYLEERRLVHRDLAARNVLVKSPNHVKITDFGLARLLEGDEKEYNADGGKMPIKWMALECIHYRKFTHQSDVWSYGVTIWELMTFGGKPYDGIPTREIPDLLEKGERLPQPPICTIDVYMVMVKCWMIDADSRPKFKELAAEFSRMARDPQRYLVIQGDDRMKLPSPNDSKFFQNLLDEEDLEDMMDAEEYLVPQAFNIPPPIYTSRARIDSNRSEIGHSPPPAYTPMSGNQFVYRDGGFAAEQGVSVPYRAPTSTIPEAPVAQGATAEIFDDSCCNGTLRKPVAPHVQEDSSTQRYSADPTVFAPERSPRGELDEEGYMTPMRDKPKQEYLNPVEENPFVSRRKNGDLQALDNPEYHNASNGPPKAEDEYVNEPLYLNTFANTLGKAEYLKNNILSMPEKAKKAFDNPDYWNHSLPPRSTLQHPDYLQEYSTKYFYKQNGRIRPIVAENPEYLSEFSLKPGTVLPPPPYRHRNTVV

MLK1 = MLK1 (Homo sapiens (Human), UniProt P80192); test: Dundee profiling
Sequence of MLK1 (P80192 whole entry, looked up, species assumed): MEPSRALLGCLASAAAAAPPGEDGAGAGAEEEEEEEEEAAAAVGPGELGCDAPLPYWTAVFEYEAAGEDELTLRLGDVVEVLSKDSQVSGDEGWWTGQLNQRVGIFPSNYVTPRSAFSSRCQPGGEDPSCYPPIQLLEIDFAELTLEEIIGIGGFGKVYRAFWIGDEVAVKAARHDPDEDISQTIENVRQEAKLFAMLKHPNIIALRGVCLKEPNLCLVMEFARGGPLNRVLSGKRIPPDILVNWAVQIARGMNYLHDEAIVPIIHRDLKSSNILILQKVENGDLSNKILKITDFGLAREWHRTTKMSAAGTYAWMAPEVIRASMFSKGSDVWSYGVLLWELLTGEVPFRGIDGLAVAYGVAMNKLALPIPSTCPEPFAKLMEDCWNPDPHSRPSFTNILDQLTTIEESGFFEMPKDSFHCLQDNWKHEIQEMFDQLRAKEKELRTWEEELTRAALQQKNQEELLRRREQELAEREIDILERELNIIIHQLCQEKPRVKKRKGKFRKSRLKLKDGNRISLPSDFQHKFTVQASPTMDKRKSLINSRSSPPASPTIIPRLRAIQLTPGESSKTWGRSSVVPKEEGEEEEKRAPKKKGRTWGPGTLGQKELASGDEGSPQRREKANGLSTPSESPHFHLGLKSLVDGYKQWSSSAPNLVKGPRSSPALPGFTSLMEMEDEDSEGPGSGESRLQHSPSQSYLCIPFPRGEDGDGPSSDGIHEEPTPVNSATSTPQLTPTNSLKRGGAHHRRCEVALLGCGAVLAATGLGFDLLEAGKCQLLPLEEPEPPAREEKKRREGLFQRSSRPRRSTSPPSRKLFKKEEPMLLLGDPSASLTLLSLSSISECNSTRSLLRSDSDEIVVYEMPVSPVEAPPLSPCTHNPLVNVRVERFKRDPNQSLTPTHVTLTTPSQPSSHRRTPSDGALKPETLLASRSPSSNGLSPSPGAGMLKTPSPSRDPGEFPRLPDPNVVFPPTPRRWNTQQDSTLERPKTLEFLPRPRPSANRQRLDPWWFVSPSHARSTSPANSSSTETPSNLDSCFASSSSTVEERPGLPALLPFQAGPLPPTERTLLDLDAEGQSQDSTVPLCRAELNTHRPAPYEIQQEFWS

ULK1 = ULK1 (Homo sapiens (Human), UniProt O75385); test: Dundee profiling
TIE2 = TIE2 (Homo sapiens (Human), UniProt Q02763); test: Dundee profiling
ACVR2B = ACVR2B (Homo sapiens (Human), UniProt Q13705); test: KinomeScan; type: binding; conditions: 1 uM
DYRK3 = DYRK3 (Homo sapiens (Human), UniProt O43781); test: Dundee profiling
IKKe = IKKe (Homo sapiens (Human), UniProt Q14164); test: Dundee profiling
TrkA = TrkA (Homo sapiens (Human), UniProt P04629); test: Dundee profiling
MST1 = MST1 (Homo sapiens (Human), UniProt Q13043); test: KinomeScan; type: binding; conditions: 1 uM
IKKb = IKKb (Homo sapiens (Human), UniProt O14920); test: Dundee profiling
MST4 = MST4 (Homo sapiens (Human), UniProt Q9P289); test: Dundee profiling
Sequence of MST4 (Q9P289 whole entry, species assumed): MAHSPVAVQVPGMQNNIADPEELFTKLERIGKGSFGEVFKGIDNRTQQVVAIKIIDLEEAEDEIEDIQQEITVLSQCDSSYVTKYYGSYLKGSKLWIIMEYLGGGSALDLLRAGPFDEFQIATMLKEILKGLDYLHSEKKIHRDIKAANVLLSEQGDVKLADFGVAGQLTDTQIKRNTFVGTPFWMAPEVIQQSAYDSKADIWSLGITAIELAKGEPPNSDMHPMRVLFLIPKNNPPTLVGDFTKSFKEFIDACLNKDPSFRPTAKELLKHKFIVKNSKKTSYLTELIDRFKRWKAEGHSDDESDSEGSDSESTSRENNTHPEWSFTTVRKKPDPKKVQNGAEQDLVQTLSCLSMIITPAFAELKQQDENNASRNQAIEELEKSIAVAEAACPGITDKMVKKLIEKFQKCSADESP

SYK = SYK (Homo sapiens (Human), UniProt P43405); test: Dundee profiling
PKCa = PKCa (Homo sapiens (Human), UniProt P17252); test: Dundee profiling
AMPK (hum) = test: Dundee profiling
EGFR (G719S) = EGFR (G719S) (Homo sapiens (Human), UniProt P00533, G719S); test: KinomeScan; type: binding; conditions: 1 uM
PKA = PKA (Homo sapiens (Human), UniProt P17612); test: Dundee profiling
SRPK1 = SRPK1 (Homo sapiens (Human), UniProt Q96SB4); test: Dundee profiling
SmMLCK = SmMLCK (Homo sapiens (Human), UniProt Q15746); test: Dundee profiling
DDR2 = DDR2 (Homo sapiens (Human), UniProt Q16832); test: Dundee profiling
ABL = ABL (Homo sapiens (Human), UniProt P00519); test: Dundee profiling
Sequence of ABL (P00519 whole entry, species assumed): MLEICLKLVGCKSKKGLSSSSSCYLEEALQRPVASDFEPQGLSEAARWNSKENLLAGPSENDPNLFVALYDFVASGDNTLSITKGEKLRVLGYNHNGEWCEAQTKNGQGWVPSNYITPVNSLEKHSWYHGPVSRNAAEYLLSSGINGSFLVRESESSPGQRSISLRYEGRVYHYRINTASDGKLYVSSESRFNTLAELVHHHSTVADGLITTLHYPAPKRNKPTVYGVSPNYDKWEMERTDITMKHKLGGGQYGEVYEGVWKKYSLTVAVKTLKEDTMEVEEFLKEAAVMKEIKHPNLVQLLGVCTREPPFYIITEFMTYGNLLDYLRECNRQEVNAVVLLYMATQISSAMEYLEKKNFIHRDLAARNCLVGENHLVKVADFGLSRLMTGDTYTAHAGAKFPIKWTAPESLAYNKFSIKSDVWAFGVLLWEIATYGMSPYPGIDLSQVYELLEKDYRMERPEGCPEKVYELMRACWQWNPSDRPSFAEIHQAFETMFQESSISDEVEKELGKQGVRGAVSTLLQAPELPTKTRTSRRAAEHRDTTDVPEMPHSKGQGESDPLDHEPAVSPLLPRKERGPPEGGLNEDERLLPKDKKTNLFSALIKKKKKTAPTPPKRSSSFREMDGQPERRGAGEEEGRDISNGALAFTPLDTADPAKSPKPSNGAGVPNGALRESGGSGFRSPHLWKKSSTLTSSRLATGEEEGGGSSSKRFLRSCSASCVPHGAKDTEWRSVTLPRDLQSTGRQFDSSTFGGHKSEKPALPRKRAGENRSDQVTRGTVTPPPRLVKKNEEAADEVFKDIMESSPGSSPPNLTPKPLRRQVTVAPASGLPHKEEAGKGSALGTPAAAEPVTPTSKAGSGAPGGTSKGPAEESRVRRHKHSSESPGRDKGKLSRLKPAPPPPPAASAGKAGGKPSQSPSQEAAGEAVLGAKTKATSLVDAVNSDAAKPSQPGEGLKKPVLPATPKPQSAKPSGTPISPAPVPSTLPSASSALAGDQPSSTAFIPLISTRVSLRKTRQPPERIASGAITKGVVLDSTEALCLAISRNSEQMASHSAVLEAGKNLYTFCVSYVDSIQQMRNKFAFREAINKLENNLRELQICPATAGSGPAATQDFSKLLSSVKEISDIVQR

p38-alpha = p38-alpha (Homo sapiens (Human), UniProt Q16539); test: KinomeScan; type: binding; conditions: 1 uM
JNK3 = JNK3 (Homo sapiens (Human), UniProt P53779); test: KinomeScan; type: binding; conditions: 1 uM
DAPK1 = DAPK1 (Homo sapiens (Human), UniProt P53355); test: Dundee profiling
JNK1 = JNK1 (Homo sapiens (Human), UniProt P45983); test: KinomeScan; type: binding; conditions: 1 uM
TTK = TTK (Homo sapiens (Human), UniProt P33981); test: Dundee profiling
PAK6 = PAK6 (Homo sapiens (Human), UniProt Q9NQU5); test: Dundee profiling
[1] = read-out: percent remaining enzymatic activity, I1, 1 μM
[2] = read-out: percent remaining enzymatic activity, I10
[3] = read-out: percent remaining enzymatic activity

Sequence of EPHB2 (P29323 19-1055, species assumed): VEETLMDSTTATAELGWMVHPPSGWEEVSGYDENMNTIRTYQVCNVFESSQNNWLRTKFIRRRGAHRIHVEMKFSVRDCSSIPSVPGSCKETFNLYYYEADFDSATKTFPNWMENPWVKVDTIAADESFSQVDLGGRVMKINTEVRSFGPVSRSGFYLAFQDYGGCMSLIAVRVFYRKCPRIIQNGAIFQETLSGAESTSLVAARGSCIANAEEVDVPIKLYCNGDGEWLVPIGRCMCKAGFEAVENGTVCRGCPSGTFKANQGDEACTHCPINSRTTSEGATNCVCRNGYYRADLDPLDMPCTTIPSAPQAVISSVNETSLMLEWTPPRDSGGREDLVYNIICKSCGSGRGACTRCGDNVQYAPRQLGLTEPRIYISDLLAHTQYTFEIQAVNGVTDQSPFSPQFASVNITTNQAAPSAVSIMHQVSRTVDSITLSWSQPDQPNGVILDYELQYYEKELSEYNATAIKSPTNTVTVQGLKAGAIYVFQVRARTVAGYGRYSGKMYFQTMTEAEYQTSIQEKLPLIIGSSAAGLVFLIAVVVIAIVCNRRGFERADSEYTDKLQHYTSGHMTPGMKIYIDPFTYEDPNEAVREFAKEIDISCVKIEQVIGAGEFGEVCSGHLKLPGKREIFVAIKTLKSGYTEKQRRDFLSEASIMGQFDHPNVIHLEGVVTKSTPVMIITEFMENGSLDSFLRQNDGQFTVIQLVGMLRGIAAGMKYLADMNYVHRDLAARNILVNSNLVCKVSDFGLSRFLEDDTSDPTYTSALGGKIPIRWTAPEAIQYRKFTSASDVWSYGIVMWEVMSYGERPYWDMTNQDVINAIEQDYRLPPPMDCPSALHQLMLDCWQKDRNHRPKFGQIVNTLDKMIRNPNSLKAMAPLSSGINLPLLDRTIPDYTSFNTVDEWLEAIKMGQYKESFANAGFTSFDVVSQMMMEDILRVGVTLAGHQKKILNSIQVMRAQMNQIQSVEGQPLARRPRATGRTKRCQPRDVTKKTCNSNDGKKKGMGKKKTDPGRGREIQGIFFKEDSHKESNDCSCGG

SMILES: CNc1nc(Nc2ccc(C(=O)N3CCOCC3)cc2OC)nc2[nH]cc(Cl)c12 [Compound 18, (4-((5-chloro-4-(methylamino)-7H-pyrrolo[2,3-d]pyrimidin-2-yl)amino)-3-methoxyphenyl)(morpholino)methanone]
- KinomeScan value (EGFR (T790M)): 97
- remaining activity at 1 µM (PIM1; [1]): 95%
- remaining activity at 1 µM (PIM1; [2]): 88%
- remaining activity at 1 µM (PKCγ; [1]): 113%
- remaining activity at 1 µM (PKCγ; [2]): 109%
- percent remaining enzymatic activity (EPHB2; I10): 58%
- remaining activity at 1 µM (EPHB2; [3]): 60%
- KinomeScan value (MLK3): 100
- KinomeScan value (MST3): 91
- percent remaining enzymatic activity (WNK1; I10): 115%
- remaining activity at 1 µM (WNK1; [3]): 108%
- remaining activity at 1 µM (HER4; [1]): 94%
- remaining activity at 1 µM (HER4; [2]): 71%
- remaining activity at 1 µM (MLK1; [1]): 81%
- remaining activity at 1 µM (MLK1; [2]): 38%
- percent remaining enzymatic activity (ULK1; I10): 95%
- remaining activity at 1 µM (ULK1; [3]): 103%
- remaining activity at 1 µM (TIE2; [1]): 104%
- remaining activity at 1 µM (TIE2; [2]): 94%
- KinomeScan value (ACVR2B): 100
- remaining activity at 1 µM (DYRK3; [1]): 74%
- remaining activity at 1 µM (DYRK3; [2]): 30%
- remaining activity at 1 µM (IKKe; [1]): 114%
- remaining activity at 1 µM (IKKe; [2]): 98%
- remaining activity at 1 µM (TrkA; [1]): 85%
- remaining activity at 1 µM (TrkA; [2]): 84%
- KinomeScan value (MST1): 100
- remaining activity at 1 µM (IKKb; [1]): 100%
- remaining activity at 1 µM (IKKb; [2]): 95%
- remaining activity at 1 µM (MST4; [1]): 103%
- remaining activity at 1 µM (MST4; [2]): 97%
- percent remaining enzymatic activity (SYK; I10): 81%
- remaining activity at 1 µM (SYK; [3]): 91%
- remaining activity at 1 µM (PKCa; [1]): 102%
- remaining activity at 1 µM (PKCa; [2]): 100%
- percent remaining enzymatic activity (AMPK (hum); I1, 1 μM): 104%
- percent remaining enzymatic activity (AMPK (hum); I10): 92%
- KinomeScan value (EGFR (G719S)): 88
- remaining activity at 1 µM (PKA; [1]): 99%
- remaining activity at 1 µM (PKA; [2]): 101%
- remaining activity at 1 µM (SRPK1; [1]): 89%
- remaining activity at 1 µM (SRPK1; [2]): 31%
- IC50 (SmMLCK): 81.3 nM
- inhibition at 1 µM (SmMLCK; read-out: inhibition of kinase activity of the DMSO control): > 90%
- remaining activity at 1 µM (SmMLCK; [1]): 9%
- remaining activity at 1 µM (SmMLCK; [2]): 1%
- remaining activity at 1 µM (DDR2; [1]): 98%
- remaining activity at 1 µM (DDR2; [2]): 93%
- remaining activity at 1 µM (ABL; [1]): 106%
- remaining activity at 1 µM (ABL; [2]): 103%
- KinomeScan value (p38-alpha): 96
- KinomeScan value (JNK3): 67
- remaining activity at 1 µM (DAPK1; [1]): 21%
- remaining activity at 1 µM (DAPK1; [2]): 5%
- KinomeScan value (JNK1): 60
- remaining activity at 1 µM (TTK; [1]): 69%
- remaining activity at 1 µM (TTK; [2]): 12%
- remaining activity at 1 µM (PAK6; [1]): 102%
- remaining activity at 1 µM (PAK6; [2]): 105%

— patent US10913744B2, “LRRK2 inhibitors and methods of making and using the same” (Dana-Farber Cancer Institute, Inc., priority 2015, dated 2021)
